In ChEMBL document CHEMBL5107949, “Design, synthesis, and antibacterial activity of N-(trifluoromethyl)phenyl substituted pyrazole derivatives” (RSC Med Chem, 2021):
Values after ≈ are worked out from the molar mass of the structure shown.

Legend:
[1] = test system: Staphylococcus aureus; assay: Antibacterial activity against Staphylococcus aureus ATCC 29213 assessed as inhibition of bacterial growth by CLSI protocol based broth microdilution method; assay type: functional
[2] = test system: Staphylococcus aureus; assay: Inhibition of DNA synthesis in Staphylococcus aureus ATCC 29213 at 0.5 times MIC preincubated for 30 mins followed by [3H]-thymidine and measured after 30 mins by [3H]-thymidine incorporation based beta scintillation counter analysis; assay type: functional; conditions: time 60 min; 1 h
[3] = test system: Staphylococcus aureus; assay: Antibacterial activity against antibiotic resistant Staphylococcus aureus ATCC 700699 assessed as inhibition of bacterial growth by CLSI protocol based broth microdilution method; assay type: functional
[4] = test system: Staphylococcus aureus; assay: Inhibition of lipid synthesis in Staphylococcus aureus ATCC 29213 at MIC preincubated for 30 mins followed by [3H]-glycerol and measured after 50 mins by [3H]-glycerol incorporation based beta scintillation counter analysis; assay type: functional; conditions: time 80 min; 1.333 h
[5] = test system: Enterococcus faecium; assay: Antibacterial activity against vancomycin resistant Enterococcus faecium ATCC 700221 assessed as inhibition of bacterial growth by CLSI protocol based broth microdilution method; assay type: functional
[6] = test system: Enterococcus faecalis; assay: Antibacterial activity against Enterococcus faecalis clinical isolate 1088051 assessed as inhibition of bacterial growth by CLSI protocol based broth microdilution method; assay type: functional
[7] = test system: Staphylococcus aureus; assay: Bactericidal activity against Staphylococcus aureus ATCC 700699 persisters assessed as log reduction in colony forming unit at 16 times MIC measured for 4 hrs by time kill assay; assay type: functional
[8] = test system: Staphylococcus aureus; assay: Inhibition of biofilm formation in Staphylococcus aureus ATCC 25923 at 3.125 to 12.5 ug/ml incubated for 24 hrs by Calgary biofilm device assay; assay type: functional, organism-based; conditions: dose 3.125-12.5 µg/ml, DDE = dose-dependent effect
[9] = test system: Enterococcus faecium; assay: Antibacterial activity against Enterococcus faecium clinical isolate 1088925 assessed as inhibition of bacterial growth by CLSI protocol based broth microdilution method; assay type: functional
[10] = test system: Staphylococcus aureus; assay: Inhibition of RNA synthesis in Staphylococcus aureus ATCC 29213 at MIC preincubated for 30 mins followed by [3H]-uridine and measured after 30 mins by [3H]-uridine incorporation based beta scintillation counter analysis; assay type: functional; conditions: time 60 min; 1 h
[11] = test system: Staphylococcus aureus; assay: Inhibition of DNA synthesis in Staphylococcus aureus ATCC 29213 at 0.25 times MIC preincubated for 30 mins followed by [3H]-thymidine and measured after 30 mins by [3H]-thymidine incorporation based beta scintillation counter analysis; assay type: functional; conditions: time 60 min; 1 h
[12] = test system: Enterococcus faecalis; assay: Antibacterial activity against Enterococcus faecalis clinical isolate 1100440 assessed as inhibition of bacterial growth by CLSI protocol based broth microdilution method; assay type: functional
[13] = test system: Staphylococcus aureus; assay: Inhibition of lipid synthesis in Staphylococcus aureus ATCC 29213 at 0.5 times MIC preincubated for 30 mins followed by [3H]-glycerol and measured after 50 mins by [3H]-glycerol incorporation based beta scintillation counter analysis; assay type: functional; conditions: time 80 min; 1.333 h
[14] = test system: Staphylococcus aureus; assay: Inhibition of protein synthesis in Staphylococcus aureus ATCC 29213 at MIC preincubated for 30 mins followed by [3H]-leucine and measured after 40 mins by [3H]-leucine incorporation based beta scintillation counter analysis; assay type: functional; conditions: time 70.0 min
[15] = test system: Enterococcus faecalis; assay: Antibacterial activity against Enterococcus faecalis clinical isolate 1094112 assessed as inhibition of bacterial growth by CLSI protocol based broth microdilution method; assay type: functional
[16] = test system: Enterococcus faecalis; assay: Antibacterial activity against Enterococcus faecalis clinical isolate 1091720 assessed as inhibition of bacterial growth by CLSI protocol based broth microdilution method; assay type: functional
[17] = test system: Staphylococcus aureus; assay: Inhibition of RNA synthesis in Staphylococcus aureus ATCC 29213 at 0.5 times MIC preincubated for 30 mins followed by [3H]-uridine and measured after 30 mins by [3H]-uridine incorporation based beta scintillation counter analysis; assay type: functional; conditions: time 60 min; 1 h
[18] = test system: Staphylococcus aureus; assay: Bactericidal activity against Staphylococcus aureus ATCC 700699 persisters assessed as log reduction in colony forming unit at 16 times MIC after 4 hrs by colony counting method; assay type: functional
[19] = test system: Enterococcus faecium; assay: Antibacterial activity against Enterococcus faecium clinical isolate 1088228 assessed as inhibition of bacterial growth by CLSI protocol based broth microdilution method; assay type: functional
[20] = test system: Enterococcus faecium; assay: Antibacterial activity against Enterococcus faecium clinical isolate 1091282 assessed as inhibition of bacterial growth by CLSI protocol based broth microdilution method; assay type: functional
[21] = test system: Bacillus subtilis; assay: Antibacterial activity against antibiotic resistant Bacillus subtilis ATCC 6623 assessed as inhibition of bacterial growth by CLSI protocol based broth microdilution method; assay type: functional
[22] = test system: Staphylococcus aureus; assay: Inhibition of protein synthesis in Staphylococcus aureus ATCC 29213 at 0.25 times MIC preincubated for 30 mins followed by [3H]-leucine and measured after 40 mins by [3H]-leucine incorporation based beta scintillation counter analysis; assay type: functional; conditions: time 70.0 min
[23] = test system: Enterococcus faecalis; assay: Anti-biofilm activity against Enterococcus faecalis ATCC 29212 assessed as eradication of biofilm formation incubated for 24 hrs by Calgary biofilm device assay; assay type: functional
[24] = test system: Staphylococcus aureus; assay: Antibacterial activity against Staphylococcus aureus clinical isolate 1088610 assessed as inhibition of bacterial growth by CLSI protocol based broth microdilution method; assay type: functional
[25] = test system: Staphylococcus aureus; assay: Antibacterial activity against Staphylococcus aureus clinical isolate 1088626 assessed as inhibition of bacterial growth by CLSI protocol based broth microdilution method; assay type: functional
[26] = test system: Staphylococcus aureus; assay: Antibacterial activity against Staphylococcus aureus clinical isolate 1088888 assessed as inhibition of bacterial growth by CLSI protocol based broth microdilution method; assay type: functional
[27] = test system: Staphylococcus aureus; assay: Antibacterial activity against antibiotic resistant Staphylococcus aureus ATCC 33591 assessed as inhibition of bacterial growth by CLSI protocol based broth microdilution method; assay type: functional
[28] = test system: Staphylococcus aureus; assay: Antibacterial activity against Staphylococcus aureus clinical isolate 1089106 assessed as inhibition of bacterial growth by CLSI protocol based broth microdilution method; assay type: functional
[29] = test system: Staphylococcus aureus; assay: Antibacterial activity against antibiotic resistant Staphylococcus aureus ATCC 33592 assessed as inhibition of bacterial growth by CLSI protocol based broth microdilution method; assay type: functional
[30] = test system: Staphylococcus aureus; assay: Antibacterial activity against antibiotic resistant Staphylococcus aureus BAA-2312 assessed as inhibition of bacterial growth by CLSI protocol based broth microdilution method; assay type: functional
[31] = test system: Staphylococcus aureus; assay: Inhibition of lipid synthesis in Staphylococcus aureus ATCC 29213 at 0.25 times MIC preincubated for 30 mins followed by [3H]-glycerol and measured after 50 mins by [3H]-glycerol incorporation based beta scintillation counter analysis; assay type: functional; conditions: time 80 min; 1.333 h
[32] = test system: Staphylococcus aureus; assay: Antibacterial activity against Staphylococcus aureus clinical isolate 1088105 assessed as inhibition of bacterial growth by CLSI protocol based broth microdilution method; assay type: functional
[33] = Cytotoxicity against human HEK293 cells reduction in cell viability incubated for 24 hrs by resazurin cell viability assay; assay type: toxicity, cell-based
[34] = test system: Staphylococcus aureus; assay: Bactericidal activity against Staphylococcus aureus ATCC 700699 persisters assessed as log reduction in colony forming unit at 2 to 32 times MIC measured for 4 hrs by time kill assay; assay type: functional, organism-based; conditions: DDE = dose-dependent effect
[35] = test system: Staphylococcus epidermidis; assay: Antibacterial activity against antibiotic resistant Staphylococcus epidermidis ATCC 700296 assessed as inhibition of bacterial growth by CLSI protocol based broth microdilution method; assay type: functional
[36] = test system: Enterococcus faecalis; assay: Antibacterial activity against antibiotic susceptible Enterococcus faecalis ATCC 29212 assessed as inhibition of bacterial growth by CLSI protocol based broth microdilution method; assay type: functional
[37] = test system: Staphylococcus aureus; assay: Bactericidal activity against Staphylococcus aureus ATCC 700699 persisters assessed as log reduction in colony forming unit at 32 times MIC measured for 4 hrs by time kill assay; assay type: functional

Compound: O=C(O)c1ccc(-c2nn(-c3ccc(C(F)(F)F)cc3)cc2CNc2ccc(Br)c(C(F)(F)F)c2)cc1
- MIC [1]: 1 µg/mL (≈ 1.71 µM)
- inhibition (INH) [2]: 43.6%
- MIC [3]: 0.78 µg/mL (≈ 1.33 µM)
- inhibition (INH) [4]: 88.3%
- MIC [5]: 0.78 µg/mL (≈ 1.33 µM)
- MIC [6]: 4 µg/mL (≈ 6.85 µM)
- log(activity) [7]: 3
- inhibition [8]: Dde
- MIC [9]: 8 µg/mL (≈ 13.7 µM)
- inhibition (INH) [10]: 75.5%
- inhibition (INH) [11]: 44%
- MIC [12]: 8 µg/mL (≈ 13.7 µM)
- inhibition (INH) [13]: 57%
- inhibition [14]: 86.1%
- MIC [15]: 8 µg/mL (≈ 13.7 µM)
- MIC [16]: 8 µg/mL (≈ 13.7 µM)
- inhibition (INH) [17]: 38.1%
- log(activity) [18]: >2
- MIC [19]: 8 µg/mL (≈ 13.7 µM)
- MIC [20]: 8 µg/mL (≈ 13.7 µM)
- MIC [21]: 0.39 µg/mL (≈ 0.667 µM)
- inhibition [22]: 55.4%
- MBEC [23]: 6.25 µg/mL
- MIC [24]: 4 µg/mL (≈ 6.85 µM)
- MIC [25]: 4 µg/mL (≈ 6.85 µM)
- MIC [26]: 8 µg/mL (≈ 13.7 µM)
- MIC [27]: 1.56 µg/mL (≈ 2.67 µM)
- MIC [28]: 4 µg/mL (≈ 6.85 µM)
- MIC [29]: 0.78 µg/mL (≈ 1.33 µM)
- MIC [30]: 1.56 µg/mL (≈ 2.67 µM)
- inhibition (INH) [31]: 55.4%
- MIC [32]: 4 µg/mL (≈ 6.85 µM)
- IC50 at 24 h [33]: > 12 µg/mL
- Activity [34]: Dde
- MIC [35]: 1.56 µg/mL (≈ 2.67 µM)
- MIC [36]: 3.12 µg/mL (≈ 5.35 µM)
- log(activity) [37]: 5
